# Laboratory results reported in patent US9668979B2, “Piperaquine microcapsules and compositions containing them” (ADARE PHARMACEUTICALS S.R.L., priority 2013, dated 2017).
# Test: Compatibility of piperaquine with the coacervation process (heating/cooling cycles; assay, Karl Fischer, XRPD)
# Type: physicochemical
# Conditions: heating/cooling cycles mimicking the process
# Description: Water content: Karl Fischer titration: Ph. Eur. 2.5.12 Method; following sample titration conditions are applied: sample solvent: methanol: formamide 1:1; sample weight: 50 mg; the value of water content in a sample is expressed as % w/w. X-Ray Powder Diffraction (XRPD) measurements are performed on a Philips X′Pert PRO diffractometer (Bragg-Brentano geometry). A compatibility study is carried out on piperaquine to assess the compatibility of the drug with the coacervation process. In particular, piperaquine undergoes heating/cooling cycles mimicking thermal excursions of the process. Then, the following tests are performed both before and after thermal cycles to ascertain the stability of piperaquine: water content analysis (Karl Fisher test); effect of mechanical stress; crystalline structure by XRPD.
smiles,measurement,value
"Clc1ccc2c(N3CCN(CCCN4CCN(c5ccnc6cc(Cl)ccc56)CC4)CC3)ccnc2c1 [PQP•4H2O, 4,4′-(1,3-propanediyldi-4,1-piperazinediyl) bis(7-chloroquinoline) phosphate hydrate (1:4:4)]",Effect of heating/cooling cycle on the drug,not affected by heating/cooling cycle
